According to patent publication US20070077283A1, “METHOD OF ENHANCING TRANSMUCOSAL DELIVERY OF THERAPEUTIC COMPOUNDS” (Nastech Pharmaceutical Company Inc., priority 2005, published 2007):

Experiments:
[1] = tested on: human-derived tracheal/bronchial epithelial cells (EpiAirway Tissue Model); assay: FITC-Dextran permeation assay across epithelial cell monolayer; assay type: cell-based; details: for Mean % FD3 Permeation: FITC-dextran 3000 (Table 4); for permeation of FD3 relative to negative controls: text summary of Table 4
Outline: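 Formulations applied apically to EpiAirway tissue inserts, shaken ~100 rpm 1.5 hours at 37 °C, with FITC-dextran (3-500 kDa) added apically. Basolateral fluorescence read at 470 nm in triplicate; result expressed as percent of FITC-dextran crossing apical to basolateral.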

[2] = tested on: human-derived tracheal/bronchial epithelial cells (EpiAirway Tissue Model); assay: Insulin permeation across epithelial cell monolayer; assay type: cell-based; details: for permeation of insulin (in words): 1000 μM in the presence of Buffer I and Buffer II
Method: Also, the efficacy of a permeation enhancing lipid to enhance the permeation of insulin across and epithelial cell layer was measured. Refer to Example 2 of the instant application for general protocol details. […] Based on the FD3 permeation data in Table 8, the ability of the C16 PAF and C16 Enantiomeric PAF in the presence of Buffers I and II to enhance permeation of the biological agent insulin was assayed. Each lipid was tested at a 1000 μM concentration.

[3] = tested on: human-derived tracheal/bronchial epithelial cells (EpiAirway Tissue Model); assay: Cell viability (MTT assay); assay type: cell-based; details: for effect on cell viability (MTT assay): compared with control Special Sauce, data not shown (Example 3); for MTT levels (cell viability): compared with PBS negative control (Example 5)
Method: (§1) Cell viability will be assessed using the MTT assay (MTT-100, MatTek kit). This kit measures the uptake and transformation of tetrazolium salt to formazan dye. Thawed and diluted MTT concentrate is prepared 1 hour prior to the end of the dosing period with the lipid by mixing 2 mL of MTT concentrate with 8 mL of MTT diluent. Each cell culture insert is washed twice with PBS containing Ca^+2 and Mg^+2 and then transferred to a new 96-well transport plate containing 100 μL of the mixed MTT solution per well. This 96-well transport plate is then incubated for three hours at 37° C. and 5% CO2. After the three hour incubation, the MTT solution is removed and the cultures are transferred to a second 96-well feeder tray containing 250 μL MTT extractant solution per well. An additional 150 μL of MTT extractan solution was added to the surface of each culture well and the samples sat at room temperature in the dark for a minimum of two hours and maximum of 24 hours. The insert membrane was then pierced with a pipet tip and the solutions in the upper and lower wells were allowed to mix. Two hundred microliters of the mixed extracted solution along with extracted blanks (negative control) was transferred to a 96-well plate for measurement with a microplate reader. The optical density (OD) of the samples was measured at 570 nm with the background subtraction at 650 nm on a plate reader. Cell viability was expressed as a percentage and calculated by dividing the OD readings for treated inserts by the OD readings for the PBS treated inserts and multiplying by 100. For the purposes of this assay, it was assumed that PBS had no effect on cell viability and therefore represented 100% cell viability.

[4] = tested on: human-derived tracheal/bronchial epithelial cells (EpiAirway Tissue Model); assay: Peptide YY (PYY) permeation across epithelial cell monolayer; assay type: cell-based
Method: Permeation is expressed as percent permeation and was calculated as follows: [formula] [formula] Terms
In the instant example, the ability of permeation enhancing lipids to enhance the permeation of the biological agent, peptide YY (PYY; molecular weight of 3.7 kDa) across the epithelial cell monolayer model system (EpiAirway™) was measured. Also, the efficacy of a permeation enhancing lipid to enhance the permeation of insulin across and epithelial cell layer was measured. Refer to Example 2 of the instant application for general protocol details.

[5] = Cell viability (MTT assay); assay type: cell-based, human; details: human; PN159 25 μM / PYY 13.67 mg/mL (High)
Method: as §1

[6] = lipid 500 μM / PYY 13.67 mg/mL (High)

| Structure (SMILES) | % FITC-Dextran Permeation FD10 ([1]; lipid 1000 μM) | % FITC-Dextran Permeation FD40 ([1]; lipid 1000 μM) | % FITC-Dextran Permeation FD70 ([1]; lipid 1000 μM) | % FITC-Dextran Permeation FD500 ([1]; lipid 1000 μM) | % FITC-Dextran Permeation FD3 ([1]; lipid 1000 μM (Table 5)) | % FD3 Permeation ([1]; lipid 1000 μM in Buffer I) | % FD3 Permeation ([1]; lipid 1000 μM in Buffer II) | Mean % FD3 Permeation ([1]; lipid 1000 μM) | permeation of FD3 relative to negative controls [1] | Mean % FD3 Permeation ([1]; lipid 500 μM) | effect on cell viability (MTT assay) [3] | further results |
| --- | --- | --- | --- | --- | --- | --- | --- | --- | --- | --- | --- | --- |
| CCCCCCCCCCCCCCCCOC[C@@H](COP(=O)([O-])OCC[N+](C)(C)C)OC(C)=O [C16 Enantiomeric PAF, 3-O-Hexadecyl-2-Acetoyl-sn-Glycero-1-Phosphocholine] | 4% | 2% | 1% | 0% | 20% | 46% | 23% | 11% | enhanced the permeation of FD3 above that of the negative controls | – | – | permeation of insulin (in words) [2]: enhance the permeation of insulin across an epithelial cell monolayer; % Insulin Permeation ([2]; lipid 1000 μM in Buffer I): 3%; % Insulin Permeation ([2]; lipid 1000 μM in Buffer II): 8% |
| CCCCCCCCCCCCCCCCOC[C@H](COP(=O)([O-])OCC[N+](C)(C)C)OC(C)=O [C16-02:0 PC(C16 PAF), 1-O-Hexadecyl-2-Acetoyl-sn-Glycero-3-Phosphocholine] | 6% | 2% | 2% | 0% | 22% | 41% | 27% | 14% | enhanced the permeation of FD3 above that of the negative controls | 5% | did not reduce cell viability below that of Special Sauce | permeation of insulin (in words) [2]: enhance the permeation of insulin across an epithelial cell monolayer; permeation of insulin ([2]; lipid 1000 μM (Example 6)): more than 3%; % Insulin Permeation ([2]; lipid 1000 μM in Buffer I): 4%; % Insulin Permeation ([2]; lipid 1000 μM in Buffer II): 8%; % Insulin Permeation ([2]; lipid 1000 μM in PBS): 3% |
| C=CCC(=O)O[C@H](COCCCCCCCCCCCCCCCC)COP(=O)([O-])OCC[N+](C)(C)C [C16-04:1 PC] | 8% | 3% | 0% | 0% | 25% | 44% | 8% | 12% | enhanced the permeation of FD3 above that of the negative controls | 6% | did not reduce cell viability below that of Special Sauce | – |
| CCCCCCCCCCCCCCCCCCOC[C@H](COP(=O)([O-])OCC[N+](C)(C)C)OC(C)=O [C18-02:0 PC(C18 PAF), 1-O-Octadecyl-2-Acetoyl-sn-Glycero-3-Phosphocholine] | 8% | 3% | 2% | 0% | 24% | 42% | 27% | 8% | enhanced the permeation of FD3 above that of the negative controls | 2% | did not reduce cell viability below that of Special Sauce | – |
| CCCCCCCCCCCCCCCC(=O)OC[C@H](COP(=O)([O-])OCC[N+](C)(C)C)OC(=O)CCCC(=O)O [PGPC, 1-Palmitoyl-2-Glutaroyl-sn-Glycero-3-Phosphocholine] | – | – | – | – | – | – | – | – | – | – | – | % FITC-Dextran Permeation FD3 ([1]; lipid 500 μM (Table 5)): 10%; MTT levels (cell viability) [3]: MTT levels comparable to that of the PBS negative control; % Cell Viability [3, 6]: 113%; % PYY Permeation [4, 6]: 0.13% |
| CC(C)C[C@H](NC(=O)[C@H](C)NC(=O)[C@H](CCCCN)NC(=O)[C@H](CC(C)C)NC(=O)[C@H](C)NC(=O)[C@H](CC(C)C)NC(=O)[C@H](CCCCN)NC(=O)[C@H](CC(C)C)NC(=O)[C@H](C)NC(=O)[C@H](CC(C)C)NC(=O)[C@@H](N)CCCCN)C(=O)N[C@@H](CCCCN)C(=O)N[C@@H](C)C(=O)N[C@@H](C)C(=O)N[C@@H](CC(C)C)C(=O)N[C@@H](CCCCN)C(=O)N[C@@H](CC(C)C)C(=O)N[C@@H](C)C(N)=O [PN159, reference compound] | – | – | – | – | – | – | – | – | – | – | – | % FITC-Dextran Permeation FD10 ([1]; PN159 25 μM): 4%; % FITC-Dextran Permeation FD40 ([1]; PN159 25 μM): 2%; % FITC-Dextran Permeation FD3 ([1]; PN159 25 μM (Table 5)): 7%; viability at 25 µM [5]: 89%; % PYY Permeation ([4]; PN159 25 μM / PYY 13.67 mg/mL (High)): 3.71% |
| CCCCCCCCCCCCCCCC(=O)OC[C@H](COP(=O)([O-])OCC[N+](C)(C)C)OC(=O)CCCC=O [POVPC, 1-Palmitoyl-2-(5′-oxo-Valeroyl)-sn-Glycero-3-Phosphocholine] | 3% | 1% | 0.3% | 0% | 10% | 53% | 9% | 10% | enhanced the permeation of FD3 above that of the negative controls | – | did not reduce cell viability below that of the control Special Sauce | permeation of FITC-dextran 3000 (FD3) over time ([1]; 1000 μM, 15, 30, 60 minutes): time-dependent permeation; % FITC-Dextran Permeation FD3 ([1]; lipid 500 μM (Table 5)): 2%; MTT levels (cell viability) [3]: MTT levels comparable to that of the PBS negative control |
